Source: patent US9364545B2, “Thermosensitive injectable hydrogel for drug delivery” (Taipei Medical University, priority 2014, dated 2016)

Legend:
C26 tumor = experiment: Tumor inhibition study, intratumoral injection; assay type: in vivo, Balb/c male mice
Protocol: (§1) The suspension of […] (1.0×10^6 cells/100 μl) was injected subcutaneously in the right flank of Balb/c male mice using 26 G needles. After 7 days tumor size reached 100-300 mm^3. The […] were randomly divided into three groups (n=3) and received following treatments. Group 1 mice were treated with an intratumoral injection of sterile PBS as control group; Group 2, mice received an intratumoral injection of Dox-HA hydrogel; Group 3, mice received an intratumoral injection of free Dox solution (4 mg/kg in 0.1 mL). The mice were weighed and tumor size was measured using a capliper for 10 days post intratumoral injection. The tumor volume (V) was calculated with the following formula V=[length×(width)^2]/2
On day 10, the mice were sacrificed and the tumor masses harvested, weighted, and photographed. Tumor inhibition rate was calculated using the equation. Tumor inhibition rate (%)=(Wc−Wt)/Wc where Wc is the weight of the tumor in the control group and Wt is the weight of the tumor in the test formulation group (L. Chen, X. Sha, X. Jiang, Y. Chen, Q. Ren, X. Fang, Pluronic P105/F127 mixed micelles for the delivery of docetaxel against Taxol-resistant non-small cell lung cancer: optimization and in vitro, in vivo evaluation, International journal of nanomedicine, 8 (2013) 73-84).
The in vivo antitumor efficacy of DHMF-15 hydrogel formulation was evaluated in the C26 tumor-bearing mice model. Mice were randomized into […] when the tumor size reached 100 mm^3. Three groups of mice received intratumoral injection of PBS, DHMF-15 hydrogel, free Dox solution, DMF-15 hydrogel, and DF-15 hydrogel respectively. […] PBS treatments had no substantial effect on C26 tumor growth, and the tumor volumes increased rapidly. After administration for 10 days, the average tumor volume in the PBS treated mice had reached over 1000 mm^3. […] Ranked from high to low inhibition efficacy, the formulations are ordered as follows: DHMF-15, free Dox solution, DMF-15, DF-15, PBS.

[1] = Body weight and death as indication of systemic toxicity; assay type: in vivo, Balb/c male mice; settings: after intratumoral injection, during the experiment
Protocol: as §1
We also monitored change in body weight during the experiment as an indication of systemic toxicity.

[2] = tested on: C26 colon carcinoma cells; experiment: Cell viability, MTT assay; assay type: cell-based; settings: 24 h incubation
Protocol: (§2) C26 colon carcinoma cells and HT29 human colon cancer cells were cultured with RPMI-1640 with 10% fetal bovine serum and 10% penicillinstreptomycin. MCF-7 human breast cancer cells MEM were cultured with Eagle's MEM with 10% fetal bovine serum and 10% penicillinstreptomycin. Cells were seeded at a density of 5×10^4 cells per well in 24-well plates. After 24 hours of incubation at 37° C. with 5% CO2, the medium was replaced with new medium containing Dox formulation. After 24 hours incubation, cell survival was then measured using tetrazolium salt MTT assay. One hundred microliters of MTT (6 mg/mL) was added to each well for 4 hours. The medium was removed after […] incubation and then 200 μl DMSO was added to dissolve any purple formazan crystal formed. Remove the solvent was removed and dried in an oven at 50° C. for 2 hours. Cell viability was measured by ELISA reader and absorbance set at 520 nm.

[3] = tested on: MCF-7 human breast cancer cells; experiment: Cell viability, MTT assay; assay type: cell-based; settings: MCF7 cells, 24 h incubation
Protocol: as §2

[4] = tested on: HT29 human colon cancer cells; experiment: Cell viability, MTT assay; assay type: cell-based; settings: 24 h incubation
Protocol: as §2

COc1cccc2c1C(=O)c1c(O)c3c(c(O)c1C2=O)C[C@@](O)(C(=O)CO)C[C@@H]3O[C@H]1C[C@H](N)[C@H](O)[C@H](C)O1.Cl [free Dox solution, Doxorubicin Hydrochloride]
Tumor size as % of that in the PBS control group (C26 tumor; after 10 days, intratumoral injection): 42.45%
Tumor weight compared to the control group (C26 tumor; day 10): significantly reduced
Tumor inhibition rate (C26 tumor; excised tumor weight on day 10, (Wc−Wt)/Wc): 80.65%
Toxicity-induced death and body weight loss [1]: neither toxicity-induced death nor serious body weight loss
Cytotoxicity (cell viability) [2]: potent cytotoxicity
Cytotoxicity (cell viability) [3]: potent cytotoxicity
Cytotoxicity (cell viability) [4]: potent cytotoxicity
